Values quoted from earlier work as cited in US4866036A, “Dipeptidyl 5-0,6-0-acyl-2-amino-2-deoxy-D-glucofuranose compositions and methods of use in aids-immunocompromised human hosts” (priority 1987, dated 1989).

Assays:
[1] = human, in vivo
[2] = in vivo
[3] = human, in vivo; remark: listed apart in the source
[4] = target: HIV reverse transcriptase (Human immunodeficiency virus type 1 group M subtype B, UniProt P04585)
[5] = test system: reverse transcriptase in several retroviruses; details: in vitro

Compound	clinical effect in AIDS or ARC patients [1]	toxicity / adverse effects in patients [3]	further results
CO[C@H]1/C=C/O[C@@]2(C)Oc3c(C)c(O)c4c(c3C2=O)C2=NC3(CCN(CC(C)C)CC3)NC2=C(NC(=O)/C(C)=C\C=C\[C@H](C)[C@H](O)[C@@H](C)[C@@H](O)[C@@H](C)[C@H](OC(C)=O)[C@@H]1C)C4=O [Ansamycin, rifabutin]	some efficacy		
Cc1cn([C@H]2C[C@H](N=[N+]=[N-])[C@@H](CO)O2)c(=O)[nH]c1=O [Azidothymidine, 3'-azido 3'-deoxythymidine]			half-life in the body [2]: relatively short half-life; penetration of the central nervous system [2]: effectively penetrates central nervous system
CC(C)(N1CC1C#N)N1CC1C(N)=O (centres unmarked) [Azimexon]	improvements in symptoms and immune function in patients with ARC but not AIDS	mild hemolysis	
CC(C)(S)[C@@H](N)C(=O)O [D-Penicillamine, 3-mercapto-D-valine]	suppressed the virus	temporarily depressed T cell levels	
O=C(O)P(=O)(O)O [Foscarnet, trisodium phosphonoformate]		serious side effects	HIV reverse transcriptase activity [4]: Inhibits HIV reverse transcriptase activity in vitro
CC(=O)Nc1ccc(C(=O)O)cc1.CC(=O)Nc1ccc(C(=O)O)cc1.CC(=O)Nc1ccc(C(=O)O)cc1.CC(O)CN(C)C.CC(O)CN(C)C.CC(O)CN(C)C.O=c1[nH]cnc2c1ncn2[C@@H]1O[C@H](CO)[C@@H](O)[C@H]1O [Inosine pranobex]	improve immune function in ARC patients		
NC(=O)c1ncn([C@@H]2O[C@H](CO)[C@@H](O)[C@H]2O)n1 [Ribavirin, 1β-D ribofuranosyl 1,2,4-triazole 3-carboxamide]	inhibited viral replication and improved immune function		
Cc1ccc(C(=O)Nc2ccc(S(=O)(=O)O)c3cc(S(=O)(=O)O)cc(S(=O)(=O)O)c23)cc1NC(=O)c1cccc(NC(=O)Nc2cccc(C(=O)Nc3cc(C(=O)Nc4ccc(S(=O)(=O)O)c5cc(S(=O)(=O)O)cc(S(=O)(=O)O)c45)ccc3C)c2)c1 [Suramin]			HIV reverse transcriptase activity [4]: Potent inhibitor
ammonium 21-tungsto-9 antimoniate [HPA 23]	no therapeutic benefit has been documented		reverse transcriptase in several retroviruses [5]: Inhibits reverse transcriptase; growth of HIV (HIV): some tendency to check the growth of HIV
α-Interferon	induced tumor regression in some AIDS related Kaposi's sarcoma cases		growth of HIV (HIV): Checks the growth of HIV in vitro
